We go through ten compounds from the NIST ThermoML archive (doi:10.1021/je0301747).

By vapor or sublimation pressure is commonly meant the pressure of vapour in equilibrium with the condensed phase.

± gives the expanded uncertainty stated by the source.

The conditions of data set [1]: Liquid.
Data set [2] is described as follows: molar enthalpy of vaporization or sublimation. As to conditions: 298.15 K; Liquid.

As to `CCCCCCCCCCCCCCCCCCCCCCCCCCCC` [octacosane], the “vapor or sublimation pressure” value in data set [1] (298.15 K) stood at 3.173e-10 kPa; in data set [1] (328.15 K), 5.263e-08 ± 5.1e-08 kPa; in data set [1] (358.15 K), 3.022e-06 ± 1.4e-06 kPa; in data set [1] (388.15 K) it was 7.829e-05 ± 2.4e-05 kPa; in data set [1] (418.15 K), 0.001107 ± 0.00027 kPa; in data set [1] (448.15 K), 0.009795 ± 0.0022 kPa. The “vapor or sublimation pressure” value is given as 0.06012 ± 0.013 kPa in data set [1] (478.15 K); 0.276 ± 0.057 kPa in data set [1] (508.15 K); 1.004 ± 0.21 kPa in data set [1] (538.15 K); 3.025 ± 0.62 kPa in data set [1] (568.15 K); 3.823 ± 0.77 kPa in data set [1] (575.15 K). Moreover, the molar enthalpy in data set [2] was determined as 33.9 ± 3.35 kcal/mol.

Consider `CCCCCCCCCCCCCCCCCCCCCCCCCC` [hexacosane], for which the “vapor or sublimation pressure” value in data set [1] (298.15 K) came out at 2.809e-09 kPa; in data set [1] (328.15 K) it was 3.247e-07 ± 2.4e-07 kPa; in data set [1] (358.15 K), 1.401e-05 ± 5.6e-06 kPa; in data set [1] (388.15 K), 0.0002888 ± 8.1e-05 kPa; in data set [1] (418.15 K), 0.003393 ± 0.0008 kPa; in data set [1] (448.15 K) it was 0.02583 ± 0.0056 kPa. Besides, the “vapor or sublimation pressure” value in data set [1] (478.15 K) worked out at 0.14 ± 0.029 kPa; in data set [1] (508.15 K), 0.5797 ± 0.12 kPa; in data set [1] (538.15 K) it was 1.934 ± 0.4 kPa; in data set [1] (568.15 K), 5.417 ± 1.1 kPa; in data set [1] (575.15 K), 6.742 ± 1.4 kPa. The molar enthalpy in data set [2] stood at 31.5 ± 2.22 kcal/mol.

In the case of `CCCCCCCCCCCCCCCCCCCCCCCCCCCCC` [nonacosane], the “vapor or sublimation pressure” value is reported as 1.018e-10 kPa in data set [1] (298.15 K); 2.044e-08 ± 2.3e-08 kPa in data set [1] (328.15 K); 1.365e-06 ± 6.8e-07 kPa in data set [1] (358.15 K); 3.99e-05 ± 1.1e-05 kPa in data set [1] (388.15 K); 0.0006219 ± 0.00012 kPa in data set [1] (418.15 K); 0.005963 ± 0.00088 kPa in data set [1] (448.15 K). The “vapor or sublimation pressure” value in data set [1] (478.15 K) is recorded as 0.0391 ± 0.005 kPa; in data set [1] (508.15 K), 0.1897 ± 0.022 kPa; in data set [1] (538.15 K), 0.7225 ± 0.08 kPa; in data set [1] (568.15 K), 2.264 ± 0.24 kPa; in data set [1] (575.15 K), 2.884 ± 0.3 kPa. The molar enthalpy in data set [2] stood at 35.2 ± 3.59 kcal/mol.

Take `CCCCCCCCCCCCCCCCCCCCCCCC` [tetracosane]: the “vapor or sublimation pressure” value in data set [1] (298.15 K) worked out at 2.373e-08 kPa; in data set [1] (328.15 K), 1.931e-06 ± 1.1e-06 kPa; in data set [1] (358.15 K) it was 6.308e-05 ± 2.1e-05 kPa; in data set [1] (388.15 K) it was 0.001041 ± 0.00027 kPa; in data set [1] (418.15 K), 0.01022 ± 0.0023 kPa; in data set [1] (448.15 K) it was 0.06716 ± 0.014 kPa. Moreover, the “vapor or sublimation pressure” value in data set [1] (478.15 K) is reported as 0.3225 ± 0.067 kPa; in data set [1] (508.15 K) it was 1.208 ± 0.25 kPa; in data set [1] (538.15 K) it was 3.705 ± 0.75 kPa; in data set [1] (568.15 K) it was 9.668 ± 2 kPa; in data set [1] (575.15 K), 11.85 ± 2.4 kPa. Also, the molar enthalpy in data set [2] was 29.1 ± 1.96 kcal/mol.

On to `CCCCCCCCCCCCCCCCCCCCCCC` [tricosane], for which the “vapor or sublimation pressure” value in data set [1] (298.15 K) is listed as 7.059e-08 kPa; in data set [1] (328.15 K), 4.801e-06 ± 2.5e-06 kPa; in data set [1] (358.15 K), 0.0001361 ± 4.3e-05 kPa; in data set [1] (388.15 K), 0.002006 ± 0.0005 kPa; in data set [1] (418.15 K) it was 0.01797 ± 0.004 kPa; in data set [1] (448.15 K) it was 0.1096 ± 0.023 kPa. Moreover, the “vapor or sublimation pressure” value in data set [1] (478.15 K) turned out to be 0.4952 ± 0.1 kPa; in data set [1] (508.15 K), 1.763 ± 0.36 kPa; in data set [1] (538.15 K), 5.183 ± 1.1 kPa; in data set [1] (568.15 K), 13.05 ± 2.6 kPa; in data set [1] (575.15 K), 15.88 ± 3.2 kPa. In data set [2], the molar enthalpy was determined as 28 ± 1.96 kcal/mol.

In the case of `CCCCCCCCCCCCCCCCCCCCCCCCCCC` [heptacosane], the “vapor or sublimation pressure” value came out at 1.127e-09 kPa in data set [1] (298.15 K); 1.502e-07 ± 1.2e-07 kPa in data set [1] (328.15 K); 7.253e-06 ± 2.8e-06 kPa in data set [1] (358.15 K); 0.0001636 ± 3.8e-05 kPa in data set [1] (388.15 K); 0.002067 ± 0.00034 kPa in data set [1] (418.15 K); 0.01669 ± 0.0023 kPa in data set [1] (448.15 K). Also, the “vapor or sublimation pressure” value in data set [1] (478.15 K) came to 0.09492 ± 0.012 kPa; in data set [1] (508.15 K) it was 0.4089 ± 0.046 kPa; in data set [1] (538.15 K) it was 1.409 ± 0.15 kPa; in data set [1] (568.15 K), 4.056 ± 0.43 kPa; in data set [1] (575.15 K) it was 5.076 ± 0.53 kPa. Moreover, the molar enthalpy in data set [2] turned out to be 32.4 ± 2.29 kcal/mol.

As for `CCCCCCCCCCCCCCCCCCCCCCCCC` [pentacosane], the “vapor or sublimation pressure” value in data set [1] (298.15 K) turned out to be 8.145e-09 kPa; in data set [1] (328.15 K) it was 7.894e-07 ± 5.2e-07 kPa; in data set [1] (358.15 K), 2.963e-05 ± 1.1e-05 kPa; in data set [1] (388.15 K) it was 0.0005462 ± 0.00015 kPa; in data set [1] (418.15 K) it was 0.005863 ± 0.0014 kPa; in data set [1] (448.15 K), 0.04146 ± 0.009 kPa. Further, the “vapor or sublimation pressure” value in data set [1] (478.15 K) was determined as 0.2114 ± 0.044 kPa; in data set [1] (508.15 K), 0.8322 ± 0.17 kPa; in data set [1] (538.15 K), 2.661 ± 0.54 kPa; in data set [1] (568.15 K) it was 7.192 ± 1.5 kPa; in data set [1] (575.15 K), 8.882 ± 1.8 kPa. For the same compound, in data set [2], the molar enthalpy was found to be 30.3 ± 2.03 kcal/mol.

For the compound `CCCCCCCCCCCCCCCCCCCCCCCCCCCCCC` [triacontane], the “vapor or sublimation pressure” value was 3.317e-11 kPa in data set [1] (298.15 K); 8.03e-09 ± 1e-08 kPa in data set [1] (328.15 K); 6.217e-07 ± 3.6e-07 kPa in data set [1] (358.15 K); 2.045e-05 ± 7.1e-06 kPa in data set [1] (388.15 K); 0.0003508 ± 9.2e-05 kPa in data set [1] (418.15 K); 0.003636 ± 0.00084 kPa in data set [1] (448.15 K). Further, the “vapor or sublimation pressure” value in data set [1] (478.15 K) is 0.02543 ± 0.0055 kPa; in data set [1] (508.15 K), 0.1301 ± 0.027 kPa; in data set [1] (538.15 K) it was 0.5185 ± 0.11 kPa; in data set [1] (568.15 K), 1.687 ± 0.34 kPa; in data set [1] (575.15 K) it was 2.167 ± 0.44 kPa. For the same compound, the molar enthalpy in data set [2] came out at 36.4 ± 3.82 kcal/mol.

Turning to `CCCCCCCCCCCCCCCCCCCCCC` [docosane], the “vapor or sublimation pressure” value in data set [1] (298.15 K) was 2.148e-07 ± 4e-07 kPa; in data set [1] (328.15 K) it was 1.218e-05 ± 5.5e-06 kPa; in data set [1] (358.15 K) it was 0.0002988 ± 8.8e-05 kPa; in data set [1] (388.15 K), 0.003922 ± 0.00095 kPa; in data set [1] (418.15 K) it was 0.032 ± 0.007 kPa; in data set [1] (448.15 K), 0.1809 ± 0.038 kPa. The “vapor or sublimation pressure” value in data set [1] (478.15 K) was 0.7674 ± 0.16 kPa; in data set [1] (508.15 K) it was 2.593 ± 0.53 kPa; in data set [1] (538.15 K) it was 7.298 ± 1.5 kPa; in data set [1] (568.15 K), 17.71 ± 3.6 kPa; in data set [1] (575.15 K) it was 21.39 ± 4.3 kPa. Besides, the molar enthalpy in data set [2] amounted to 26.7 ± 1.89 kcal/mol.

Regarding `CCCCCCCCCCCCCCCCCCCCC` [heneicosane], the “vapor or sublimation pressure” value in data set [1] (298.15 K) is on record as 6.69e-07 kPa; in data set [1] (328.15 K), 3.15e-05 ± 2.3e-05 kPa; in data set [1] (358.15 K), 0.0006673 ± 0.00029 kPa; in data set [1] (388.15 K), 0.007785 ± 0.0025 kPa; in data set [1] (418.15 K), 0.05774 ± 0.015 kPa; in data set [1] (448.15 K), 0.3019 ± 0.071 kPa. In addition, the “vapor or sublimation pressure” value in data set [1] (478.15 K) is given as 1.201 ± 0.27 kPa; in data set [1] (508.15 K), 3.849 ± 0.83 kPa; in data set [1] (538.15 K) it was 10.36 ± 2.2 kPa; in data set [1] (568.15 K) it was 24.22 ± 5 kPa; in data set [1] (575.15 K), 29.02 ± 6 kPa. The molar enthalpy in data set [2] amounted to 25.5 ± 1.74 kcal/mol.
